Reference: ChEMBL document CHEMBL1201862, “PubChem BioAssay data set” (2004)
Activity calls are given as the source filed them.

How the values were obtained:
HEK293 [1] = assay: inhibition of NOD1-driven NF-kB reporter – cell-based, luminescence, uHTS, primary screen (AID 1578); assay type: functional; conditions: Homo sapiens
HEK293 [2] = assay: cells; assay type: functional, cell-based; conditions: Homo sapiens
HEK293 [3] = assay: cells; assay type: functional, cell-based; conditions: Homo sapiens; remark: listed apart in the source
[4] = molecular target: T1, Nucleotide-binding oligomerization domain-containing protein 2 (Homo sapiens, UniProt Q9HC29); assay: inhibition of NOD2-driven NF-kB reporter – cell-based, luminescence, uHTS, HEK293 (AID 1566); assay type: functional
T1 sequence (Q9HC29 whole entry, the tested form may be a part): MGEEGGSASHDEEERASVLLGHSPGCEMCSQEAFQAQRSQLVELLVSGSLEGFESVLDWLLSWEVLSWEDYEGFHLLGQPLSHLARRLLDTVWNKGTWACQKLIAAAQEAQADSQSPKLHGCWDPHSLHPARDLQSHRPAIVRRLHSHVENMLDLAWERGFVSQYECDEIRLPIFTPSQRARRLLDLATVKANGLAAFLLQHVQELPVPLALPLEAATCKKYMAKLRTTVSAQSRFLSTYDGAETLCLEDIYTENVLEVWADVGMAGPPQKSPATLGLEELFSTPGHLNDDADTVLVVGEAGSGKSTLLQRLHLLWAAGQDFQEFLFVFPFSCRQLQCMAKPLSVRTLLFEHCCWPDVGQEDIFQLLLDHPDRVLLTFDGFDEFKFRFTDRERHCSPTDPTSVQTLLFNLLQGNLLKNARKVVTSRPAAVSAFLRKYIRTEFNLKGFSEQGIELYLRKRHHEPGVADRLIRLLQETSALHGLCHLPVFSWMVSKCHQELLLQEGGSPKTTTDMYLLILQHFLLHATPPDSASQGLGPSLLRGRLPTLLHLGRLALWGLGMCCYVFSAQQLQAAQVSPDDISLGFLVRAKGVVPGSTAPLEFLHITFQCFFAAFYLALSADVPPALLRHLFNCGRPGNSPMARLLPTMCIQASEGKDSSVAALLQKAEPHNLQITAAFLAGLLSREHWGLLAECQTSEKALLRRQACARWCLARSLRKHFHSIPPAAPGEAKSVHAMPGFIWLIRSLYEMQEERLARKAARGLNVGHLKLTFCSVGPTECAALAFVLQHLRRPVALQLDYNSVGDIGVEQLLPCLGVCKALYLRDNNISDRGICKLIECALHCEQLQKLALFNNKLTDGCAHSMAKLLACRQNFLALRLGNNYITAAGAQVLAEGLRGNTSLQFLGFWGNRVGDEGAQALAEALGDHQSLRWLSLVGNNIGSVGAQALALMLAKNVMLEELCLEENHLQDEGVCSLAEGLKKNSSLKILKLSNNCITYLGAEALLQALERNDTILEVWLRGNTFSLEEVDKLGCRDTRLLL

HEK293 [5] = assay: NOD2 signaling inhibitors in MDP-stimulated cells, cell-based, uHTS, luminescence (AID 2001); assay type: functional; conditions: Homo sapiens
HEK293 [6] = assay: cells; assay type: functional, cell-based; conditions: Homo sapiens; remark: listed apart in the source
Tumor necrosis factor = Tumor necrosis factor (Homo sapiens, UniProt P01375); assay: analog potency on TNFa NF-kB signaling – cell-based, revised, SAR follow-up (AID 2337); assay type: functional
Tumor necrosis factor, sequence (P01375 whole entry, the tested form may be a part): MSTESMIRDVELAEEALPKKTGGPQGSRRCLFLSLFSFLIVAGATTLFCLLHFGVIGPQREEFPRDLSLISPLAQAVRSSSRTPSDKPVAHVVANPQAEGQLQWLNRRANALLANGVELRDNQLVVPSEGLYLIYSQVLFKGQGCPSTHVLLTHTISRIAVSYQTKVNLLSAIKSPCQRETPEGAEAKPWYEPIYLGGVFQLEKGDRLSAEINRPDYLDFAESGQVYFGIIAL

[7] = molecular target: T2, Nucleotide-binding oligomerization domain-containing protein 1 (Homo sapiens, UniProt Q9Y239); assay: blockers of NOD1 pathway activity – revised, SAR follow-up (AID 2333); assay type: functional
T2 sequence (Q9Y239 whole entry): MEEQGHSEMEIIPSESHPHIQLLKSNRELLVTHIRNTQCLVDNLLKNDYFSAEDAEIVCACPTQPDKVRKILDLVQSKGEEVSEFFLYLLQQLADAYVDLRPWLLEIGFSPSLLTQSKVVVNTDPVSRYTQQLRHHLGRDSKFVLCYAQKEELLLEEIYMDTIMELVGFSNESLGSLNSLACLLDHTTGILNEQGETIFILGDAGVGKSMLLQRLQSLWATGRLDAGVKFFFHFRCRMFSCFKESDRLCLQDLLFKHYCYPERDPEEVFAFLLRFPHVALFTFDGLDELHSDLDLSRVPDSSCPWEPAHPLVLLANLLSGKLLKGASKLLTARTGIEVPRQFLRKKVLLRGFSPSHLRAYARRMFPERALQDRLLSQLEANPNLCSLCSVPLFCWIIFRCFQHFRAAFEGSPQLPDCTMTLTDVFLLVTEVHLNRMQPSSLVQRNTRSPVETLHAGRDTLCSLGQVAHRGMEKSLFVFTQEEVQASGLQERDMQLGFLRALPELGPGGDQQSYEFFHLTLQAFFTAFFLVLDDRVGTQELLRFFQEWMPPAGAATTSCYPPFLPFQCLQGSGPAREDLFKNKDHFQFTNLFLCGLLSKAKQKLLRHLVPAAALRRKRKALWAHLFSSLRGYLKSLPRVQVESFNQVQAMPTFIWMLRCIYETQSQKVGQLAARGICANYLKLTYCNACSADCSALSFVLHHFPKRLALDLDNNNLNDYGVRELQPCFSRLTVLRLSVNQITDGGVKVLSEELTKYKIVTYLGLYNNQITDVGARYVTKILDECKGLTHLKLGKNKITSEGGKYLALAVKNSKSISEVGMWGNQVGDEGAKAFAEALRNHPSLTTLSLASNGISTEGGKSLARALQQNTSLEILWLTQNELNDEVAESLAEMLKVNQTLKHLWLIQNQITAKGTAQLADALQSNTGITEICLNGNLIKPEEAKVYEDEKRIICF

[8] = molecular target: T1, Nucleotide-binding oligomerization domain-containing protein 2; assay: PubChem AID 2334; assay type: functional
[9] = molecular target: T3, Small ubiquitin-related modifier 1 (Homo sapiens, UniProt P63165); assay: SUMO1 protein interaction blockers, potency – biochemical, fluorescence polarization, uHTS hits, dose response (AID 624382); assay type: functional; conditions: read-out: IC50_Mean
T3 sequence (P63165 whole entry): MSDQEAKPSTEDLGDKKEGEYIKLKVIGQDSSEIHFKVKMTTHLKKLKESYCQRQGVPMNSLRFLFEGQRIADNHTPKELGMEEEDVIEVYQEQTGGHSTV

[10] = molecular target: T3, Small ubiquitin-related modifier 1; assay: SUMO1 protein-protein binding blockers, potency – biochemical, FRET, dose response (AID 624383); assay type: functional; conditions: read-out: IC50_Mean
HEK293 [11] = assay: cells; conditions: Homo sapiens
Cytochrome P450 2C19 = Cytochrome P450 2C19 (Homo sapiens, UniProt P33261); assay: qHTS Assay for Inhibitors and Substrates of Cytochrome P450 2C19. [Related pubchem assays: 410 ]; assay type: ADME; conditions: read-out: Potency
Cytochrome P450 2C19, sequence (P33261 whole entry): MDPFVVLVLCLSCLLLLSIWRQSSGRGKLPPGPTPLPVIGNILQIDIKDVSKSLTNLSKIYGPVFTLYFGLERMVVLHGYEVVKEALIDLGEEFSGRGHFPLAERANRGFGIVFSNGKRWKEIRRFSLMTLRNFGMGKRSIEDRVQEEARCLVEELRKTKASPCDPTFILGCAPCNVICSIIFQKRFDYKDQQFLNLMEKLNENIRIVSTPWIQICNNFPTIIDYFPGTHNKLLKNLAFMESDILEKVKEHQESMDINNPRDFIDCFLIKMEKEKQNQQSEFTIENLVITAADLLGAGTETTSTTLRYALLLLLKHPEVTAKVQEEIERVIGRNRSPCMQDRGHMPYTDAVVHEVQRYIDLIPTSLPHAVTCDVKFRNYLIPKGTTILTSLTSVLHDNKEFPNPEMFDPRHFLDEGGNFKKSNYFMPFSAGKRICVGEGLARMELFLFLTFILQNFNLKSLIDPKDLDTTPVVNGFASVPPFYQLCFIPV

Cytochrome P450 2D6 = Cytochrome P450 2D6 (Homo sapiens, UniProt P10635); assay: qHTS Assay for Inhibitors and Substrates of Cytochrome P450 2D6. [Related pubchem assays: 410 ]; assay type: ADME; conditions: read-out: Potency
Cytochrome P450 2D6, sequence (P10635 whole entry): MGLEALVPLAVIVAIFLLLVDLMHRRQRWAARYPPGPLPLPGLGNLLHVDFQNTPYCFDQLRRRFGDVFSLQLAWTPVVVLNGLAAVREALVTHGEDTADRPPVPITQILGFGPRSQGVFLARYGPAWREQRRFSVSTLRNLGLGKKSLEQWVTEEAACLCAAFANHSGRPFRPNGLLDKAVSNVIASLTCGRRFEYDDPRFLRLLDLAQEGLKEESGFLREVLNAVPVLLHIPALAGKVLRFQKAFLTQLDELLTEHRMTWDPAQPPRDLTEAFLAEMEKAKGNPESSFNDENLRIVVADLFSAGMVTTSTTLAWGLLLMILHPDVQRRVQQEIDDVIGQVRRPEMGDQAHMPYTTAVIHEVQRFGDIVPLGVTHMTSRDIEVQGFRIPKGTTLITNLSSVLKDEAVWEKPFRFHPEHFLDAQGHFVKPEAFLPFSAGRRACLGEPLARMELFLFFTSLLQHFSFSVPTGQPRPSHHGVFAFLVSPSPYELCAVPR

HeLa = assay: viability loss in HeLa cells – cell-based, 24 h, cherry-picked samples, cytotoxicity control, dose response (AID 504726); assay type: functional; conditions: Homo sapiens;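 further: potency for cytotoxicity as loss of luminescence signal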
ORF 73 = molecular target: T4, ORF 73 (Human herpesvirus 8, UniProt O40947); assay: KSHV LANA DNA-binding disruption – biochemical, fluorescence polarization, cherry-picked samples, dose response (AID 504725); parameters: species or system Human gammaherpesvirus 8;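 further: fluorescence polarization of a labeled DNA duplex reporting LANA DNA binding; potency is for inhibitors that block LANA binding to the DNA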
T4 sequence (O40947 whole entry): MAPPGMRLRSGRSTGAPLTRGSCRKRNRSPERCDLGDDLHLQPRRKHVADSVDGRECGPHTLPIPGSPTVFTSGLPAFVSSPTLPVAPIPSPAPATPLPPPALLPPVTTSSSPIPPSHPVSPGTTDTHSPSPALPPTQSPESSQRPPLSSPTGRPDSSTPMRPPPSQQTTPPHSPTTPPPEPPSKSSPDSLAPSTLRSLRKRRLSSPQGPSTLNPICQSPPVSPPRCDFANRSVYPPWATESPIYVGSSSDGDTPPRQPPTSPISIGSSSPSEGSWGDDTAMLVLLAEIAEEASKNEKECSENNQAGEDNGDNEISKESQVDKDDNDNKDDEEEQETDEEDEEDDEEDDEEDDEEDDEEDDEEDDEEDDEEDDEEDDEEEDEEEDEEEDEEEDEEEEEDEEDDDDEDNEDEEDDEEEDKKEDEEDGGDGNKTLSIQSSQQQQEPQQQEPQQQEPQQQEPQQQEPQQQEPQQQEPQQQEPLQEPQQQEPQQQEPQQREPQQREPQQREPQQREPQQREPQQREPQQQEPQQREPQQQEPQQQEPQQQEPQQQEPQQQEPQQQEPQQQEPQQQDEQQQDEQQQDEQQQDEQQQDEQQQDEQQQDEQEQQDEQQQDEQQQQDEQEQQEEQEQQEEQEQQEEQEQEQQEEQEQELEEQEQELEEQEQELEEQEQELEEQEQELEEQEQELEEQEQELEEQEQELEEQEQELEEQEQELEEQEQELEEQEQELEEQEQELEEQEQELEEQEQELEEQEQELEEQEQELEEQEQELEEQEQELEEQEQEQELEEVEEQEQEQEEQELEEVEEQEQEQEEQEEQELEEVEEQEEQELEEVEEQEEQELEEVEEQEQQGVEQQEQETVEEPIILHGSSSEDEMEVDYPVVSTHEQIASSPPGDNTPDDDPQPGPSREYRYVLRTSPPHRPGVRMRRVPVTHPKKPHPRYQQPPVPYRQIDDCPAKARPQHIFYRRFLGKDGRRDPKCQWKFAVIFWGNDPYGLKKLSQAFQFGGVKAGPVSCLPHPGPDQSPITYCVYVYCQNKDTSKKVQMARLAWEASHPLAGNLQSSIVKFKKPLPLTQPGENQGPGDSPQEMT

[12] = molecular target: Histone-lysine N-methyltransferase NSD2 (Homo sapiens, UniProt O96028); assay type: biochemical
Histone-lysine N-methyltransferase NSD2, sequence (O96028 whole entry): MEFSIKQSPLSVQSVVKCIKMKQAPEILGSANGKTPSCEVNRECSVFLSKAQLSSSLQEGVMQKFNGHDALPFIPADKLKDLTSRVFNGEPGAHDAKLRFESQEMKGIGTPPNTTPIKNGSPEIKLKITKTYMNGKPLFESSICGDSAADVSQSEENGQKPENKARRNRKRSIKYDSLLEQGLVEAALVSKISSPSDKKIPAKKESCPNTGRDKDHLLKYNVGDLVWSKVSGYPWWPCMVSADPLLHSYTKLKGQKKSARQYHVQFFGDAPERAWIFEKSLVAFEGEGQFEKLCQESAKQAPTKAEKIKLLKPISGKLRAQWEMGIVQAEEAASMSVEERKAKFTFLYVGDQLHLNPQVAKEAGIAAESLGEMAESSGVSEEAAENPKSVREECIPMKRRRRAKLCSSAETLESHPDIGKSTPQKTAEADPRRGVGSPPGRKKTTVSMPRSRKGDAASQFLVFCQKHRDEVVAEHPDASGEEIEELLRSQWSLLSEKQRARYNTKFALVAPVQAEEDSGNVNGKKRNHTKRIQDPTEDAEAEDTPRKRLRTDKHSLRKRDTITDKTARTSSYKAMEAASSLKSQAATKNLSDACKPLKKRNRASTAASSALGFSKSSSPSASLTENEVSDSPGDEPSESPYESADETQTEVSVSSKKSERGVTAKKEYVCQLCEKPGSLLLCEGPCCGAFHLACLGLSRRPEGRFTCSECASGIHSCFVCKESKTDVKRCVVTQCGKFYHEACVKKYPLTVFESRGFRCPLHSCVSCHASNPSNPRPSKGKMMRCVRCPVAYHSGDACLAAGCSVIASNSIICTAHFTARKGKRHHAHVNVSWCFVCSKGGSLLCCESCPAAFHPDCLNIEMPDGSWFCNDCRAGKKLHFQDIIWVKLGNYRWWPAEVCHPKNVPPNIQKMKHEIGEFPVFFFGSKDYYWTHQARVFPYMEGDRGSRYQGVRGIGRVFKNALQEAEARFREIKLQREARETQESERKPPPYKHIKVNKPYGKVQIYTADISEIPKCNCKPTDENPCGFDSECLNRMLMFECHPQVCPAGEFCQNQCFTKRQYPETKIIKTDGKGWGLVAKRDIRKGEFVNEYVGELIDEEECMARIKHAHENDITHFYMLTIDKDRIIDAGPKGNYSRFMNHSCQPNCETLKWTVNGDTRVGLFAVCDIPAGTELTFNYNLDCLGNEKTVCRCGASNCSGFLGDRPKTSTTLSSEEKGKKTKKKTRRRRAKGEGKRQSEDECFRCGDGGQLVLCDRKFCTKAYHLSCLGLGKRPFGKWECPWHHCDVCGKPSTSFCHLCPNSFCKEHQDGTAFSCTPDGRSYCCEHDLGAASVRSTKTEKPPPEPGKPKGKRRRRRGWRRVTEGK

Cytochrome P450 2C9 = Cytochrome P450 2C9 (Homo sapiens, UniProt P11712); conditions: Potency
Cytochrome P450 2C9, sequence (P11712 whole entry): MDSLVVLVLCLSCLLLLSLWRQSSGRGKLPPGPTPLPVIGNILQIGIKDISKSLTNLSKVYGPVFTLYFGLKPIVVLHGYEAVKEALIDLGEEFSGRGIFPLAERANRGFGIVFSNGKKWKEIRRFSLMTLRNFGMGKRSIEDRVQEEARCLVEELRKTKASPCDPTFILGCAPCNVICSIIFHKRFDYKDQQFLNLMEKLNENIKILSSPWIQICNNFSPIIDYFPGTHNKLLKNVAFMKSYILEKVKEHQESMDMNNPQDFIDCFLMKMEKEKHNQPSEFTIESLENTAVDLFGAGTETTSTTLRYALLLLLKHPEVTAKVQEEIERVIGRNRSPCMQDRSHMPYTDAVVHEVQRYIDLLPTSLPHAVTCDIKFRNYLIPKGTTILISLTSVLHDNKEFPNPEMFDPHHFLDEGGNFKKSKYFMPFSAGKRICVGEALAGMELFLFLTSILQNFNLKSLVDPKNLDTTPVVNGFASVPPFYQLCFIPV

Hexokinase HKDC1 = molecular target: T5, Hexokinase HKDC1 (Homo sapiens, UniProt Q2TB90); assay: inhibition of HKDC1 glucose phosphorylation – biochemical, W721R variant, dose response (AID 504729); assay type: functional
T5 sequence (Q2TB90 whole entry): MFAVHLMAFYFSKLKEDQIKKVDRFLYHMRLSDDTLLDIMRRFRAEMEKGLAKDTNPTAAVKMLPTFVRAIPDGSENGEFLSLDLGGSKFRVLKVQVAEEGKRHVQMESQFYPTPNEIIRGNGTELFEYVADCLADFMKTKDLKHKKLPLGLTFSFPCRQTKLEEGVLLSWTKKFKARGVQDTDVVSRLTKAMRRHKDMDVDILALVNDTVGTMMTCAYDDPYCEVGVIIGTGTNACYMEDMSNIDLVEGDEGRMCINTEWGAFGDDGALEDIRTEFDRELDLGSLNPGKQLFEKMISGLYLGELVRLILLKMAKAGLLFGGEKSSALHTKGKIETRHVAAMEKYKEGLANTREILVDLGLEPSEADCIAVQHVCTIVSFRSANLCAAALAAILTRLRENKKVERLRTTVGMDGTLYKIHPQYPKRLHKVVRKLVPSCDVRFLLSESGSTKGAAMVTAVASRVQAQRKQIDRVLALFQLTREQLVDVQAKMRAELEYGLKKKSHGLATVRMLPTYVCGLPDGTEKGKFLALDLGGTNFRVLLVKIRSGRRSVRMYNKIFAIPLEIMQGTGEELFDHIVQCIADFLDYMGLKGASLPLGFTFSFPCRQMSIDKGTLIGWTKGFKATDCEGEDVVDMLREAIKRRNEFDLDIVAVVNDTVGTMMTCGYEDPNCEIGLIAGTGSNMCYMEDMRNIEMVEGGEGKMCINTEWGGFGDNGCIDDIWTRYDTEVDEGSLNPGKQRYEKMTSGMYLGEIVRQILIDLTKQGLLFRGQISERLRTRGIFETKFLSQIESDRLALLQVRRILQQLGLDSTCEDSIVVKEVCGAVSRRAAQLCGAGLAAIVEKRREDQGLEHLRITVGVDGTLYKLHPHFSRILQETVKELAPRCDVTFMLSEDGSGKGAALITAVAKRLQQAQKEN

[13] = luciferase reporter signal suppression in cells – H4 neuroglioma cells, luminescence, dose response (AID 1990); assay type: functional, cell-based
[14] = Luminescence Cell-Based Dose Response HTS to Identify Inhibitors of 5'UTR Stem-Loop Driven Prion Protein mRNA Translation in H4 Neuroglioblastoma Cells. [Related pubchem assays: 1827 (Project Summary), 1813 (Primary HTS)]; assay type: functional
[15] = alpha-synuclein stem-loop luciferase translation blockers – H4 neuroglioma cells, luminescence, confirmation (AID 1988); assay type: functional, cell-based
[16] = molecular target: Scavenger receptor class B member 1 (Mus musculus, UniProt Q61009); assay: mouse SR-BI DiI-HDL uptake blockers – ldlA[mSR-BI] cells, fluorescence, cherry pick, dose response (AID 493194); assay type: functional, cell-based;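 further: cellular uptake of fluorescent DiI-labeled HDL measured as cell fluorescence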
Scavenger receptor class B member 1, sequence (Q61009 whole entry): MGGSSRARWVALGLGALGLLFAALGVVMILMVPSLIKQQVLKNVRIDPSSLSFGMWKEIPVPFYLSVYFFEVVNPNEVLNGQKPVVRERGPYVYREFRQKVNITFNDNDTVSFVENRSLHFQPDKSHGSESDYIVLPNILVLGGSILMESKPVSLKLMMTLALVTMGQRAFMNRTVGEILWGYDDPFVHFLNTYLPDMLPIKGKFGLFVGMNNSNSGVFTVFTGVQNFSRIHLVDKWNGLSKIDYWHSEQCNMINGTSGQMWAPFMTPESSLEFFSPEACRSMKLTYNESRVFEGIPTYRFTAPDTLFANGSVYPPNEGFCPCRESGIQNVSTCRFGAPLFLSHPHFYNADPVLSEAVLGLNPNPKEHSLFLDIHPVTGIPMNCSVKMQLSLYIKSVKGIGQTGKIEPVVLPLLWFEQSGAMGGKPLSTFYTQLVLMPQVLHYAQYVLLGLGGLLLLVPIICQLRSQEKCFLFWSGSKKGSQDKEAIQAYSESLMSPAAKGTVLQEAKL

INS1 = assay: INS-1E survival protection against cytokine death – cell-based, luminescence, retest, dose response (AID 449756); assay type: functional; conditions: Rattus norvegicus;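 further: cell death triggered by IL-1 beta plus TNF-alpha plus IFN-gamma mixture; protective hits raise ATP signal compared with cytokine alone wells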
Cytochrome P450 3A4 = Cytochrome P450 3A4 (Homo sapiens, UniProt P08684); conditions: Potency;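 further: confirmatory qHTS run detecting inhibitors and substrates of CYP3A4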

With Cc1oc2c(C)c3oc(=O)c(CCC(=O)O)c(C)c3cc2c1-c1ccccc1 the EC50 (HEK293 [1]) was 7.66 µM (active), the IC50 (HEK293 [2]) was > 20 µM (inactive) and the IC50 (HEK293 [3]) was > 20 µM (inactive). For the same molecule, the EC50 [4] was 3.67 µM (active), the IC50 (HEK293 [5]) was 14.8 µM (inactive) and the IC50 (HEK293 [6]) was > 20 µM (inactive). For the same molecule, the IC50 (Tumor necrosis factor) was 5.03 µM (active), the IC50 [7] was 5.43 µM (active) and the IC50 [8] was 5.03 µM (active). For the same molecule, the IC50 [9] was > 66.6 µM (inactive), the IC50 [10] was 13.4 µM (active) and the IC50 (HEK293 [11]) was > 20 µM (inactive).

In the case of COc1ccc(-c2coc3cc(O)ccc3c2=O)cc1 [FORMONONETIN], the AC50 (Cytochrome P450 2C19) is reported as 7.94 µM (inconclusive) and the AC50 (Cytochrome P450 2D6) is reported as 10 µM (inconclusive).

For O=C1CCCC(=O)C1=NNc1ccc(C(=O)O)cc1, the AC50 (HeLa) was > 350 µM (inactive), the AC50 (ORF 73) was 30.2 µM (active) and the AC50 [12] was 10.3 µM (active).

In the case of CC(=O)OCC1OC(C#Cc2ccc(C)cc2C)C=CC1OC(C)=O (stereo not given), the AC50 (Cytochrome P450 2C19) is reported as 1.58 µM (inconclusive) and the AC50 (Cytochrome P450 2C9) is reported as 2.51 µM (inconclusive).

For CCOC(=O)c1ccc(NC(=O)CSc2ccc(-c3ccccn3)nn2)cc1, the IC50 (Hexokinase HKDC1) was 2.31 µM (active).

For O=C(Nc1cccc(NC(=O)c2cc([N+](=O)[O-])ccc2Cl)n1)c1cc([N+](=O)[O-])ccc1Cl, the EC50 [13] was 15.3 µM (active), the EC50 [14] was > 60 µM (not active) and the EC50 [15] was 8.35 µM (active). The AC50 [16] was 20.2 µM (active) and the AC50 (INS1) was 6.4 µM (active).

With COC(=O)NC(/C(C(=O)OC)=C(\C)NCc1ccccc1)c1cccs1 (stereo not given) the AC50 (Cytochrome P450 2C19) was 0.0316 µM (inconclusive), the AC50 (Cytochrome P450 2D6) was 3.98 µM (inconclusive) and the AC50 (Cytochrome P450 3A4) was 3.98 µM (inconclusive). For the same molecule, the AC50 (Cytochrome P450 2C9) was 7.94 µM (inconclusive).

For O=C(c1cn(-c2ccccc2)nc1-c1cccc([N+](=O)[O-])c1)N1CCCCC1, the AC50 [16] was 23.6 µM (active).
